Measured values as given in patent publication US20200206370A1, “18F-LABELED BISPH[…] PET IMAGING” (University of Southern California, priority 2016, published 2020).

Assay: MicroPET imaging and organ uptake quantification after tail vein injection in normal nude mice
Format: in vivo, mouse
Procedure: All animal studies were approved by the University of Southern California Institutional Animal Care and Use Committee. Female athymic nude mice (about 4-6 weeks old, with a body weight of 20-25 g) were obtained from Harlan Laboratories (Livermore, Calif.). MicroPET scans were performed using an Inveon microPET scanner (Siemens Medical Solutions, Malvern, Pa., USA). A normal nude mouse was anesthetized using 2% isoflurane and injected with 1.3-2.5 MBq of [^18F]-ClFMBP via tail vein. At 0.5, 1, and 2 h post injection, static emission scans were acquired for 10 min. Raw PET images were reconstructed using 2D ordered subset expectation maximization (OSEM) algorithms with scatter, random and attenuation correction.
The 2D projection of PET images at 2 h post-injection is shown.
Accumulation of [^18F]-ClFMBP in other mouse organs was minimal.

[1] = microPET quantification, 2 h post-injection, tail vein, normal nude mice

SMILES: O=P(O)(O)C([18F])(Cl)P(=O)(O)O [[^18F]-ClFMBP, (chloro[^18F]-fluoromethylene)bisphosphonic acid]
- visibility of joints and bones in microPET images (0.5, 1 and 2 h post-injection, normal nude mice): clearly visible with high contrast to contralateral background
- uptake of radioactivity in the bladder (microPET images, normal nude mice): Predominant uptake
- accumulation in other mouse organs (microPET quantification, 2 h post-injection): minimal
- uptake in bones [1]: 2.72±0.05 % ID/g
- uptake in joints [1]: 2.37±0.08 % ID/g
- uptake in mouse kidneys [1]: 0.16±0.08 % ID/g
- uptake in mouse liver [1]: 0.21±0.04 % ID/g
- route of excretion (suggested by bladder uptake in microPET images): mainly through the renal system
